Results published in ChEMBL document CHEMBL3232809, “Synthesis, antibiotic activity and structure-activity relationship study of some 3-enaminetetramic acids” (2014).
Converted amounts (≈) assume the structure as drawn.

How the values were obtained:
Assay type in all cases: functional
Staphylococcus aureus [1] = experiment: Antimicrobial activity against methicillin-sensitive Staphylococcus aureus ATCC 13709
Staphylococcus aureus [2] = experiment: Antimicrobial activity against vancomycin-susceptible Staphylococcus aureus ATCC 25923
Enterococcus faecalis = experiment: Antimicrobial activity against vancomycin-susceptible Enterococcus faecalis ATCC 29212
Haemophilus influenzae [3] = experiment: Antimicrobial activity against Haemophilus influenzae ATCC 31517 MMSA
Streptococcus pneumoniae [4] = experiment: Antimicrobial activity against penicillin- and erythromycin-resistant Streptococcus pneumoniae in presence of 2.5% horse blood
Escherichia coli [5] = experiment: Antimicrobial activity against Escherichia coli 50
Streptococcus pneumoniae [6] = experiment: Antimicrobial activity against erythromycin-susceptible Streptococcus pneumoniae ATCC 49619
Pseudomonas aeruginosa = experiment: Antimicrobial activity against Pseudomonas aeruginosa ATCC 27853
Haemophilus influenzae [7] = experiment: Antimicrobial activity against LS2 Efflux knock-out Haemophilus influenzae
Streptococcus pneumoniae [8] = experiment: Antimicrobial activity against penicillin- and erythromycin-resistant Streptococcus pneumoniae
Staphylococcus aureus [9] = experiment: Antimicrobial activity against Staphylococcus aureus Oxford
Enterococcus faecium = experiment: Antimicrobial activity against vancomycin-resistant Enterococcus faecium
Escherichia coli [10] = experiment: Antimicrobial activity against Escherichia coli 49
Staphylococcus aureus [11] = experiment: Antimicrobial activity against methicillin-resistant Staphylococcus aureus
Escherichia coli [12] = experiment: Antimicrobial activity against Escherichia coli ATCC 25922

SMILES | MIC (Staphylococcus aureus [1]) [µg/mL] | MIC (Staphylococcus aureus [2]) [µg/mL] | MIC (Enterococcus faecalis) [µg/mL] | MIC (Haemophilus influenzae [3]) [µg/mL] | MIC (Streptococcus pneumoniae [4]) [µg/mL] | MIC (Escherichia coli [5]) [µg/mL] | MIC (Streptococcus pneumoniae [6]) [µg/mL] | MIC (Pseudomonas aeruginosa) [µg/mL] | MIC (Haemophilus influenzae [7]) [µg/mL] | MIC (Streptococcus pneumoniae [8]) [µg/mL] | MIC (Staphylococcus aureus [9]) [µg/mL] | MIC (Enterococcus faecium) [µg/mL] | MIC (Escherichia coli [10]) [µg/mL] | MIC (Staphylococcus aureus [11]) [µg/mL] | MIC (Escherichia coli [12]) [µg/mL]
COC(=O)[C@@]12CO[C@@H](C(C)(C)C)N1C(=O)/C(=C(\C)NC13CC4CC(CC(C4)C1)C3)C2=O | > 64 | > 64 | > 64 | > 64 | > 64 | > 32 | > 64 | > 32 | 16 (≈ 37.2 µM) | > 64 | > 64 | > 64 | > 32 | > 64 | > 32
CCCCCCCCC/C(=C1\C(=O)CNC1=O)N1CCCCC1 | 16 (≈ 49.9 µM) | 16 (≈ 49.9 µM) | 16 (≈ 49.9 µM) | 64 (≈ 200 µM) | 16 | > 32 | > 64 | > 32 | > 64 | 16 (≈ 49.9 µM) | 16 (≈ 49.9 µM) | 8 (≈ 25 µM) | > 32 | 16 (≈ 49.9 µM) | > 32
CCCCCCCCCCCCC/C(NCCCNC(=O)COCC(=O)O)=C1\C(=O)CN(CCCCCC)C1=O | > 64 | > 64 | 16 (≈ 28.3 µM) | > 64 | 64 | > 32 | 8 (≈ 14.1 µM) | > 32 | > 64 | 16 (≈ 28.3 µM) | > 64 | 16 (≈ 28.3 µM) | > 32 | > 64 | > 32
CCCC(=O)N1CC(=O)/C(=C(\CC23CC4CC(CC(C4)C2)C3)NCCCN2CCOCC2)C1=O | > 64 | > 64 | > 64 | > 64 | 64 | > 32 | 64 (≈ 136 µM) | > 32 | 16 (≈ 33.9 µM) | 64 (≈ 136 µM) | > 64 | > 64 | > 32 | > 64 | > 32
CCCC(=O)N1CC(=O)/C(=C(\CC23CC4CC(C)(CC(C)(C4)C2)C3)NCCCN2CCOCC2)C1=O | > 64 | > 64 | > 64 | > 64 | 32 | > 32 | 16 (≈ 32 µM) | > 32 | 8 (≈ 16 µM) | 16 (≈ 32 µM) | > 64 | > 64 | > 32 | > 64 | > 32
CCCC(=O)N1CC(=O)/C(=C(\CC23CC4CC(CC(C4)C2)C3)NCCCN2CCCCC2C)C1=O (stereo not given) | 64 (≈ 132 µM) | 64 (≈ 132 µM) | 64 (≈ 132 µM) | > 64 | 32 | > 32 | 32 (≈ 66.2 µM) | > 32 | 32 (≈ 66.2 µM) | 32 (≈ 66.2 µM) | 64 (≈ 132 µM) | 64 (≈ 132 µM) | > 32 | 64 (≈ 132 µM) | > 32
CSCCC1C(=O)/C(=C(\CC23CC4CC(C)(CC(C)(C4)C2)C3)NCC(C)(C)CN(C)C)C(=O)N1C(C)=O (stereo not given) | > 64 | > 64 | > 64 | > 64 | > 64 | > 32 | > 64 | > 32 | 4 (≈ 7.52 µM) | > 64 | > 64 | > 64 | > 32 | > 64 | > 32
CCCCCCCCCCC/C(NCCCOC(C)C)=C1/C(=O)N[C@@H](CCCC(=O)NCCCOC(C)C)C1=O | > 64 | > 64 | > 64 | > 64 | > 64 | > 32 | > 64 | > 32 | 8 (≈ 14.1 µM) | 16 (≈ 28.3 µM) | > 64 | > 64 | > 32 | > 64 | > 32
CCCCCCCCCCC/C(NCCCOC(C)C)=C1\C(=O)[C@@H]2CCCC(=O)N2C1=O | > 64 | > 64 | > 64 | > 64 | > 64 | > 32 | > 64 | > 32 | 4 (≈ 8.92 µM) | 16 (≈ 35.7 µM) | > 64 | > 64 | > 32 | > 64 | > 32
CCOC(=O)[C@]12CO[C@H](C(C)(C)C)N1C(=O)/C(=C(/CC13CC4CC(CC(C4)C1)C3)NC(C)CCCN(CC)CC)C2=O (stereo not given in full) | 32 (≈ 54.6 µM) | 64 (≈ 109 µM) | 32 (≈ 54.6 µM) | > 64 | 32 | > 32 | 32 (≈ 54.6 µM) | > 32 | 16 (≈ 27.3 µM) | 16 (≈ 27.3 µM) | 32 (≈ 54.6 µM) | 32 (≈ 54.6 µM) | > 32 | 64 (≈ 109 µM) | > 32
